Values of other authors, collected in article PMC8815272 (The Journal of Supercritical Fluids, 2022).
Counter-ions that a name gives are not always drawn. Like-named read-outs stand apart in the source and are kept apart here.

Conditions: cited from earlier work
[1] = SC-CO2, 12–30 MPa, 313.2–343.2 K
[2] = SC-CO2, 12–33 MPa, 308.15–338.15 K
[3] = SC-CO2, 12.16–35.46 MPa, 308–348 K
[4] = SC-CO2, 12.2–35.5 MPa, 308–348 K
[5] = SC-CO2, 18.3–33.5 MPa, 308–328 K
[6] = SC-CO2, 15.5–30.5 MPa, 315–345 K
[7] = SC-CO2, 9–25 MPa, 308.2–328.2 K
[8] = SC-CO2, 12–27 MPa, 308.2–338.2 K
[9] = SC-CO2, 10–26 MPa, 308.2–328.2 K
[10] = SC-CO2, 9.2–24.4 MPa, 308.2–328.2 K
[11] = SC-CO2, 12–30 MPa, 308.2–338.2 K
[12] = SC-CO2, 12–27 MPa, 308.15–338.15 K
[13] = SC-CO2, 14.9–25.5 MPa, 303–323 K
[14] = SC-CO2, 10–30.3 MPa, 308.2–328.2 K

## CC(C)N1c2ccccc2C(C)(C)C12C=Nc1c(cc(N3CCc4ccccc43)c3ccccc13)O2 (stereo not drawn) [1,3-dihydro-3,3-dimethyl-1-isopropyl-6-(2,3)-(dihydroindole-1-yl)spiro[2 H-indole-2,3 − 3 H-naphtho[2,1-b][1,4]oxazine]]
SC-CO2, 10–26 MPa, 308–328 K
  Crossover (MPa): 17 MPa
  Mole fraction (y): 2.2 × 10^-7 to 5.05 × 10^-6

## CCCCc1oc2ccccc2c1C(=O)c1cc(I)c(OCCN(CC)CC)c(I)c1 [Amiodarone hydrochloride]
[1]
  Crossover (MPa): 19 MPa
  Mole fraction (y): 2.510 × 10^−5 to 1.012 × 10^−3

## C[C@@H](O[C@H]1OCCN(Cc2n[nH]c(=O)[nH]2)[C@H]1c1ccc(F)cc1)c1cc(C(F)(F)F)cc(C(F)(F)F)c1 [Aprepitant]
[2]
  Crossover (MPa): 15–18 MPa
  Mole fraction (y): 4.50 × 10^−6 to 7.67 × 10^−5

## C[C@@H]1CC[C@H]2[C@@H](C)C(=O)O[C@@H]3O[C@@]4(C)CC[C@@H]1[C@]32OO4 [Artemisinin]
SC-CO2, 10–25 MPa, 303–328 K
  Crossover (MPa): 13–17 MPa
  Mole fraction (y): 10^-4 to 10^-3

## CC(C)c1c(C(=O)Nc2ccccc2)c(-c2ccccc2)c(-c2ccc(F)cc2)n1CC[C@@H](O)C[C@@H](O)CC(=O)O [Atorvastatin]
[3]
  Crossover (MPa): 17 MPa
  Mole fraction (y): 1.12 × 10^−6 to 1.45 × 10^−3

## Cn1cnc([N+](=O)[O-])c1Sc1ncnc2nc[nH]c12 [Azathioprine]
SC-CO2, 12–27 MPa, 308–338 K
  Crossover (MPa): 12–15 MPa
  Mole fraction (y): 0.27 × 10^−5 to 1.83 × 10^−5

## CC[C@H]1OC(=O)[C@H](C)[C@@H](O[C@H]2C[C@@](C)(OC)[C@@H](O)[C@H](C)O2)[C@H](C)[C@@H](O[C@@H]2O[C@H](C)C[C@H](N(C)C)[C@H]2O)[C@](C)(O)C[C@@H](C)CN(C)[C@H](C)[C@@H](O)[C@]1(C)O [Azithromycin]
[4]
  Crossover (MPa): 13.8–14 MPa
  Mole fraction (y): 6.9 × 10^−5 to 2.73 × 10^−4

## CS(=O)(=O)OCCCCOS(C)(=O)=O [Busulfan]
SC-CO2, 12–40 MPa, 308–338 K
  Crossover (MPa): 16 MPa

## C=CC1=C(C(=O)O)N2C(=O)[C@@H](NC(=O)/C(=N\OCC(=O)O)c3csc(N)n3)[C@H]2SC1 [Cefixime trihydrate]
[5]
  Mole fraction (y): 1.6 × 10^−7 to 3.02 × 10^−7

## CC[C@H]1OC(=O)[C@H](C)[C@@H](O[C@H]2C[C@@](C)(OC)[C@@H](O)[C@H](C)O2)[C@H](C)[C@@H](O[C@@H]2O[C@H](C)C[C@H](N(C)C)[C@H]2O)[C@](C)(OC)C[C@@H](C)C(=O)[C@H](C)[C@@H](O)[C@]1(C)O [Clarithromycin]
[4]
  Crossover (MPa): 15–15.2 MPa
  Mole fraction (y): 1.31 × 10^−4 to 3.28 × 10^−4

## CCC[C@@H]1C[C@@H](C(=O)N[C@@H]([C@H]2O[C@H](SC)[C@H](O)[C@@H](O)[C@H]2O)[C@H](C)Cl)N(C)C1 [Clindamycin]
[4]
  Crossover (MPa): 14.8–15.2 MPa
  Mole fraction (y): 1.77 × 10^−4 to 1.146 × 10^−3

## CCC(=O)O[C@]1(C(=O)CCl)[C@@H](C)C[C@H]2[C@@H]3CCC4=CC(=O)C=C[C@]4(C)[C@@]3(F)[C@@H](O)C[C@@]21C [Clobetasol Propionate]
[6]
  Crossover (MPa): 24.5 MPa
  Mole fraction (y): 1 × 10^−6 to 2.1 × 10^−5

## CCN(CC)c1ccc2cc(-c3nc4ccccc4[nH]3)c(=O)oc2c1 [Coumarin-7]
SC-CO2, 9–33 MPa, 308–338 K
  Crossover (MPa): 13–16 MPa
  Mole fraction (y): 4.15 × 10^−6 to 1.00 × 10^−5

## CN1CCC(=C2c3ccccc3C=Cc3ccccc32)CC1 [Cyproheptadine]
SC-CO2, 16–40 MPa, 308–338 K
  Crossover (MPa): 20 MPa
  Mole fraction (y): 3.35 × 10^−5 to 3.09 × 10^−3

## CC(=O)OCC(=O)[C@H]1CC[C@H]2[C@@H]3CCC4=CC(=O)CC[C@]4(C)[C@H]3CC[C@]12C [Desoxycorticosterone acetate]
[6]
  Crossover (MPa): 24.5 MPa
  Mole fraction (y): 5 × 10^−6 to 1.03 × 10^−4

## O=C(O)c1cc(-c2ccc(F)cc2F)ccc1O [Diflunisal, 5-(2,4-difluorophenyl)− 2-hydroxybenzoic acid]
[7]
  Crossover (MPa): 15 MPa
  Mole fraction (y): 0.54 × 10^-6 to 8.07 × 10^-6

## CC[C@H]1OC(=O)[C@H](C)[C@@H](O[C@H]2C[C@@](C)(OC)[C@@H](O)[C@H](C)O2)[C@H](C)[C@@H](O[C@@H]2O[C@H](C)C[C@H](N(C)C)[C@H]2O)[C@](C)(O)C[C@@H](C)C(=O)[C@H](C)[C@@H](O)[C@]1(C)O [Erythromycin]
[4]
  Crossover (MPa): 16.8–17 MPa
  Mole fraction (y): 4.3 × 10^−5 to 3.12 × 10^−4

## COc1ccc2nc([S@@+]([O-])Cc3ncc(C)c(OC)c3C)[nH]c2c1 [Esomeprazole]
[8]
  Crossover (MPa): 22 MPa
  Mole fraction (y): 1.11 × 10^-5 to 9.10 × 10^-4

## CC(C(=O)O)c1cccc(Oc2ccccc2)c1 (stereo not drawn) [Fenoprofen]
SC-CO2, 12–40 MPa, 308–338 K
  Crossover (MPa): 16 MPa
  Mole fraction (y): 2.01 × 10^−5 to 4.20 × 10^−3

## CC(C(=O)O)c1ccc(-c2ccccc2)c(F)c1 (stereo not drawn) [Flurbiprofen]
SC-CO2, 8–25 MPa, 303–323 K
  Crossover (MPa): 12 MPa
  Mole fraction (y): 2.170 × 10^-5 to 19.683 × 10^-5

## CC(C)n1c(/C=C/C(O)CC(O)CC(=O)O)c(-c2ccc(F)cc2)c2ccccc21 (stereo not drawn) [Fluvastatin]
[3]
  Crossover (MPa): 17 MPa
  Mole fraction (y): 5 × 10^−6 to 6 × 10^−4

## Cc1ccc(NC(=O)c2ccc(CN3CCN(C)CC3)cc2)cc1Nc1nccc(-c2cccnc2)n1 [Imatinib mesylate]
[8]
  Crossover (MPa): 18–21 MPa
  Mole fraction (y): 1.0 × 10^−7 to 4.4 × 10^−6

## CC(C)(O)C(=O)c1ccc(OCCO)cc1 [Irgacure® 2959, 2-Hydroxy-4'-(2-hydroxyethoxy)− 2-methylpropiophenone]
[9]
  Crossover (MPa): 14 MPa
  Mole fraction (y): 5.17 × 10^−6 to 2.83 × 10^−4

## O=C1C=CC(=O)c2c(O)cccc21 [Juglone, 5-hydroxy-1,4-naphthoquinone]
[10]
  Crossover (MPa): 21–22 MPa
  Mole fraction (y): 2.0 × 10^−5 to 1.6 × 10^−3

## CN1CCC(=C2c3ccccc3CC(=O)c3sccc32)CC1 [Ketotifen fumarate]
[11]
  Crossover (MPa): 20 MPa
  Mole fraction (y): 2.11 × 10^−5 to 1.07 × 10^−3

## CCOC(=O)N1CCC(=C2c3ccc(Cl)cc3CCc3cccnc32)CC1 [Loratadine]
[12]
  Crossover (MPa): 18–21 MPa
  Mole fraction (y): 4.50 × 10^−6 to 1.30 × 10^−3

## CC[C@H](C)C(=O)O[C@H]1C[C@@H](C)C=C2C=C[C@H](C)[C@H](CC[C@@H]3C[C@@H](O)CC(=O)O3)[C@H]21 [Lovastatin]
[3]
  Crossover (MPa): 17 MPa

## CC(C(=O)O)c1ccc(CC2CCCC2=O)cc1 (stereo not drawn) [Loxoprofen]
SC-CO2, 12–40 MPa, 308–338 K
  Crossover (MPa): 20 MPa
  Mole fraction (y): 1.04 × 10^−5 to 1.28 × 10^−3

## Cc1cnc(NC(=O)C2=C(O)c3ccccc3S(=O)(=O)N2C)s1 [Meloxicam sodium]
[13]
  Crossover (MPa): 15–17 MPa
  Mole fraction (y): 4.41 × 10^−6 to 12.76 × 10^−6

## CCn1cc(C(=O)O)c(=O)c2cc(F)c(N3CCNCC3)cc21 [Norfloxacin]
[14]
  Mole fraction (y): 1.4 × 10^−6 to 24.4 × 10^−6

## CC1COc2c(N3CCN(C)CC3)c(F)cc3c(=O)c(C(=O)O)cn1c23 (stereo not drawn) [Ofloxacin]
[14]
  Mole fraction (y): 0.4 × 10^−6 to 1.3 × 10^−6

## C[C@]12C/C(=C/O)C(=O)C[C@@H]1CC[C@@H]1[C@@H]2CC[C@@]2(C)[C@H]1CC[C@]2(C)O [Oxymetholone]
[5]
  Crossover (MPa): 18 MPa
  Mole fraction (y): 1.6 × 10^−5 to 1.49 × 10^−4

## CC(C)c1nc(N(C)S(C)(=O)=O)nc(-c2ccc(F)cc2)c1/C=C/[C@@H](O)C[C@@H](O)CC(=O)O [Rosuvastatin]
[3]
  Crossover (MPa): 17 MPa
  Mole fraction (y): 3 × 10^−6 to 2.44 × 10^−4

## CCC(C)(C)C(=O)O[C@H]1C[C@@H](C)C=C2C=C[C@H](C)[C@H](CC[C@@H]3C[C@@H](O)CC(=O)O3)[C@H]21 [Simvastatin]
[3]
  Crossover (MPa): 17 MPa
  Mole fraction (y): 2 × 10^−6 to 5.35 × 10^−4

## CNC(=O)c1cc(Oc2ccc(NC(=O)Nc3ccc(Cl)c(C(F)(F)F)c3)cc2)ccn1 [Sorafenib tosylate]
SC-CO2, 12–27 MPa, 308–338 K
  Mole fraction (y): 0.68 × 10^−6 to 12.57 × 10^−6

## CCN(CC)CCNC(=O)c1c(C)[nH]c(/C=C2\C(=O)Nc3ccc(F)cc32)c1C [Sunitinib malate]
SC-CO2, 12–27 MPa, 308–338 K
  Mole fraction (y): 0.5 × 10^−5 to 8.56 × 10^−5

## Cc1ccc(C(=O)c2ccc(CC(=O)O)n2C)cc1 [Tolmetin]
SC-CO2, 12–40 MPa, 308–338 K
  Crossover (MPa): 16 MPa
  Mole fraction (y): 5.00 × 10^−5 to 2.59 × 10^−3

## Nc1nc(N)c2nc(-c3ccccc3)c(N)nc2n1 [Triamterene, 2,4,7-Triamino-6-phenylpteridine]
SC-CO2, 12–27 MPa, 308–338 K
  Crossover (MPa): 19.2–19.5 MPa
  Mole fraction (y): 0.03 × 10^−5 to 2.89 × 10^−5
